Experimental data as given in patent publication US9815835B2, “Substituted polycyclic carbamolypyridone derivative” (priority 2009, dated 2017).

Test system: influenza virus
Assay: microbe, parasite or virus in culture
Format: cell-based, influenza virus (MDBK or MDCK cells)
Settings: unidentified influenza virus, 72 h, read-out: CPE EC50

SMILES	EC50 [nM]
COCCCC1N(C(C)C)C(=O)c2c(O)c(=O)ccn2N1C1c2cccc(F)c2CCc2c(F)cccc21 (stereo not drawn) [Example 523]	14

Same assay, conditions: unidentified influenza virus, 72 h, read-out: CPE EC50, effective concentration to achieve 50% CPE inhibition, 3 days incubation, WST-8

SMILES	EC50 [nM]
CC(C)N1CN(C2c3ccccc3COc3ccccc32)n2ccc(=O)c(O)c2C1=O (stereo not drawn) [Example 391]	71
CC(=O)N1CC[C@@H](N2CN(C3c4ccccc4CSc4ccccc43)n3ccc(=O)c(O)c3C2=O)C1 (stereo partly drawn) [Example 289]	419
C[C@@H](N1CN([C@H]2c3ccccc3SCc3cccc(Cl)c32)n2ccc(=O)c(O)c2C1=O)C(F)(F)F [Example 430]	29
CC(CN(C)C)N1CN(C2c3ccccc3CCc3ccccc32)n2ccc(=O)c(O)c2C1=O (stereo not drawn) [Example 479]	64
C[C@H](N1CN([C@@H]2c3ccccc3CSc3ccccc32)n2ccc(=O)c(O)c2C1=O)C(F)(F)F [Example 415]	22
CC(C)N1CN(Cc2ccc(Cl)c(Cl)c2)n2ccc(=O)c(O)c2C1=O [Example 199]	2720
C[C@@H](N1CN(C2c3ccccc3COc3ccc(F)cc32)n2ccc(=O)c(O)c2C1=O)C(F)(F)F (stereo partly drawn) [Example 410]	14
CC(CN1CCOCC1)N1CN(C2c3ccccc3CSc3ccccc32)n2ccc(=O)c(O)c2C1=O (stereo not drawn) [Example 483]	27
C[C@H](N1CN([C@@H]2c3ccccc3SCc3cccc(Cl)c32)n2ccc(=O)c(O)c2C1=O)C(F)(F)F [Example 431]	11
CC(C)N1C(=O)c2c(O)c(=O)ccn2N(C2c3ccccc3CCc3ccccc32)C1CCCN (stereo not drawn) [Example 534]	1200
O=C(O)c1cn2c(c(O)c1=O)C(=O)N1CCCCN1C2C(c1ccccc1)c1ccccc1 (stereo not drawn) [Example 507]	197
Cc1noc(CN2CN(C3c4ccccc4CCc4ccccc43)n3ccc(=O)c(O)c3C2=O)n1 [Example 270]	129
COCCN1C(=O)c2c(O)c(=O)c(C(=O)O)cn2N(C2c3ccccc3CCc3ccccc32)C1CCSC (stereo not drawn) [Example 556]	412
CC(C)N1CN(C2c3ccccc3CCc3ccccc32)n2cc(C(=O)O)c(=O)c(O)c2C1=O [Example 491]	99
C[C@@H](N1CN([C@H]2c3ccccc3CSc3ccccc32)n2ccc(=O)c(O)c2C1=O)C(F)(F)F [Example 413]	5
CCCN1C[C@H](C(c2ccccc2)c2ccccc2)n2cc(C(=O)O)c(=O)c(O)c2C1=O [Example 181]	349
CC(C)N1CN(C2c3ccccc3CSc3ccccc32)n2cc(C(=O)O)c(=O)c(O)c2C1=O (stereo not drawn) [Example 492]	160
CCC(C)N1C[C@H](C(c2ccccc2)c2ccccc2)n2cc(C(=O)O)c(=O)c(O)c2C1=O (stereo partly drawn) [Example 186]	159
CC(C)C[C@@H](CO)N1CN(C2c3ccccc3CSc3ccccc32)n2ccc(=O)c(O)c2C1=O (stereo partly drawn) [Example 377]	22
COCCN1CN(C2c3ccccc3COc3cc(F)ccc32)n2ccc(=O)c(O)c2C1=O (stereo not drawn) [Example 397]	77
C[C@@H](N1CN([C@H]2c3cc(F)ccc3CSc3ccc(F)cc32)n2ccc(=O)c(O)c2C1=O)C(F)(F)F [Example 462]	11
C[C@H](N1CN([C@H]2c3ccccc3CSc3ccc(F)cc32)n2ccc(=O)c(O)c2C1=O)C(F)(F)F [Example 461]	74
CC(N1CN(C(c2ccccc2)c2ccccc2Cl)n2ccc(=O)c(O)c2C1=O)C(F)(F)F (stereo not drawn) [Example 242]	59
CN(C)CC1N(CCO)C(=O)c2c(O)c(=O)ccn2N1C1c2ccccc2CCc2ccccc21 (stereo not drawn) [Example 551]	107
COCC(COC)N1CN(C2c3cc(F)ccc3CSc3ccc(F)cc32)n2ccc(=O)c(O)c2C1=O (stereo not drawn) [Example 340]	27

SMILES	EC50 [nM]
CC(C)N1CN(C2c3cc(F)ccc3CCc3ccc(F)cc32)n2ccc(=O)c(O)c2C1=O [Example 279]	119
CC(C)=CCN1C[C@H](C(c2ccccc2)c2ccccc2)n2cc(C(=O)O)c(=O)c(O)c2C1=O [Example 182]	562
O=C1c2c(O)c(=O)ccn2N(C2c3ccccc3CCc3ccccc32)CN1CC(O)CO (stereo not drawn) [Example 364]	515
CC(C)C[C@H](CO)N1CN(C2c3ccccc3CSc3ccccc32)n2ccc(=O)c(O)c2C1=O (stereo partly drawn) [Example 374]	154
CC(C)N1CN(C2c3ccccc3CSc3ccccc32)n2ccc(=O)c(O)c2C1=O (stereo not drawn) [Example 301]	17
C[C@@H](N1CN([C@H]2c3ccccc3CSc3ccc(Cl)cc32)n2ccc(=O)c(O)c2C1=O)C(F)(F)F [Example 455]	71
N#Cc1ccccc1N1CC(C2c3ccccc3CCc3ccccc32)n2ccc(=O)c(O)c2C1=O (stereo not drawn) [Example 568]	2810
C[C@@H](N1CN([C@H]2c3ccccc3COc3c(F)cccc32)n2ccc(=O)c(O)c2C1=O)C(F)(F)F [Example 425]	47
CC(N1CN(C2c3ccccc3CSc3c(F)cccc32)n2ccc(=O)c(O)c2C1=O)C(F)(F)F (stereo not drawn) [Example 342]	26
CC(CN(C)C)N1CN(C2c3ccccc3CSc3c(Cl)cccc32)n2ccc(=O)c(O)c2C1=O (stereo not drawn) [Example 481]	86
O=C(O)c1cn2c(c(O)c1=O)C(=O)N(Cc1ccc(F)cc1F)C[C@@H]2C(c1ccccc1)c1ccccc1 [Example 16]	632
C[C@H](N1CN([C@H]2c3ccccc3CSc3ccccc32)n2ccc(=O)c(O)c2C1=O)C(F)(F)F [Example 416]	19
CS(=O)(=O)CCN1CN(C2c3ccccc3CCc3ccccc32)n2ccc(=O)c(O)c2C1=O [Example 269]	417
CC(=O)OCCN1CN(C2c3ccccc3CSc3ccccc32)n2ccc(=O)c(O)c2C1=O (stereo not drawn) [Example 325]	25
C[C@@H](N1CN([C@H]2c3ccccc3CSc3c(Cl)cccc32)n2ccc(=O)c(O)c2C1=O)C(F)(F)F [Example 450]	14
CC(CO)N1CN(C2c3ccccc3CCc3ccccc32)n2ccc(=O)c(O)c2C1=O (stereo not drawn) [Example 362]	67
CCCC1N(C(C)C)C(=O)c2c(O)c(=O)ccn2N1C1c2ccccc2CCc2ccccc21 (stereo not drawn) [Example 518]	24
CCN(CC)CC1N(CCO)C(=O)c2c(O)c(=O)ccn2N1C1c2ccccc2CCc2ccccc21 (stereo not drawn) [Example 550]	42
C[C@H](N1CN([C@H]2c3ccccc3CSc3ccc(Cl)cc32)n2ccc(=O)c(O)c2C1=O)C(F)(F)F [Example 475]	441
O=C1c2c(O)c(=O)ccn2N(C2c3ccccc3CSc3ccccc32)CN1CC(F)(F)F (stereo not drawn) [Example 306]	21
C[C@H](N1CN([C@H]2c3ccccc3CSc3c(F)cccc32)n2ccc(=O)c(O)c2C1=O)C(F)(F)F [Example 453]	49
COCCN1C[C@H](C(c2ccccc2)c2ccccc2)n2cc(Cl)c(=O)c(O)c2C1=O [Example 558]	541
COCC(COC)N1CN(C2c3ccccc3CSc3ccccc32)n2ccc(=O)c(O)c2C1=O (stereo not drawn) [Example 318]	15
CC(CN(C)C)N1CN(C2c3ccccc3CSc3ccccc32)n2ccc(=O)c(O)c2C1=O (stereo not drawn) [Example 480]	84
CC(C)(C)N1CN(C2c3ccccc3CCc3ccccc32)n2ccc(=O)c(O)c2C1=O [Example 265]	36

SMILES	EC50 [nM]
COCCN1CN(C2c3ccccc3CCc3ccccc32)n2ccc(=O)c(O)c2C1=O [Example 258]	28
COCCCN1CN(C2c3ccccc3CCc3ccccc32)n2ccc(=O)c(O)c2C1=O [Example 267]	63
CSCC1N(C(C)C)C(=O)c2c(O)c(=O)ccn2N1C1c2ccccc2CCc2ccccc21 (stereo not drawn) [Example 514]	18
CC(C)OCCN1C[C@H](C(c2ccccc2)c2ccccc2)n2cc(C(=O)O)c(=O)c(O)c2C1=O [Example 184]	403
COCCCC1N(C(C)C)C(=O)c2c(O)c(=O)ccn2N1C1c2ccccc2CCc2ccccc21 (stereo not drawn) [Example 522]	14
CC(C)N1CN(C2c3ccccc3CSc3c(F)cccc32)n2ccc(=O)c(O)c2C1=O (stereo not drawn) [Example 351]	19
C[C@@H](N1CN([C@H]2c3ccc(C(F)(F)F)cc3CSc3ccccc32)n2ccc(=O)c(O)c2C1=O)C(F)(F)F [Example 432]	62
COCCCC1N(C(C)C)C(=O)c2c(O)c(=O)ccn2N1C1c2ccc(F)cc2CCc2cc(F)ccc21 (stereo not drawn) [Example 526]	19
CC(C)N1CN(C2c3ccccc3CCc3c(Cl)cccc32)n2ccc(=O)c(O)c2C1=O (stereo not drawn) [Example 282]	29
CN1CN(C2c3ccccc3CSc3c(F)cccc32)n2ccc(=O)c(O)c2C1=O (stereo not drawn) [Example 354]	83
O=C1c2c(O)c(=O)ccn2N(C2c3ccccc3CCc3ccccc32)CN1CCF [Example 262]	38
O=C1c2c(O)c(=O)ccn2N(C2c3ccccc3CSc3ccccc32)CN1CCOC(F)(F)F (stereo not drawn) [Example 297]	33
CCOCCN1CN(C2c3ccccc3CSc3ccccc32)n2ccc(=O)c(O)c2C1=O (stereo not drawn) [Example 312]	29
CC(C)N1CN(C2c3ccc(Cl)cc3COc3ccccc32)n2ccc(=O)c(O)c2C1=O (stereo not drawn) [Example 409]	29
C[C@@H](N1CN([C@@H]2c3cc(Cl)ccc3CSc3ccccc32)n2ccc(=O)c(O)c2C1=O)C(F)(F)F [Example 443]	4
CC(C)N1C(=O)c2c(O)c(=O)ccn2N(C2c3ccccc3CCc3ccccc32)C1CCN(C)C (stereo not drawn) [Example 537]	22
CC(C)N1CN(C2c3ccccc3CSc3ccc(Cl)cc32)n2ccc(=O)c(O)c2C1=O (stereo not drawn) [Example 328]	168
COCCN1CN(C2c3ccccc3COc3ccc(F)cc32)n2ccc(=O)c(O)c2C1=O (stereo not drawn) [Example 401]	133
C[C@@H](N1CN([C@H]2c3ccccc3CSc3cc(F)ccc32)n2ccc(=O)c(O)c2C1=O)C(F)(F)F [Example 458]	14
CCN1C(=O)c2c(O)c(=O)ccn2C(C2c3ccccc3CSc3ccccc32)N1CC (stereo not drawn) [Example 502]	142
CC(C)(C)[C@@H](CO)N1CN(C2c3ccccc3CSc3ccccc32)n2ccc(=O)c(O)c2C1=O (stereo partly drawn) [Example 380]	18
CC(=O)OCC(C)N1CN(C2c3ccccc3CCc3ccccc32)n2ccc(=O)c(O)c2C1=O (stereo not drawn) [Example 261]	47
O=C1c2c(O)c(=O)ccn2N(C2c3ccccc3CSc3ccccc32)CN1CCCF (stereo not drawn) [Example 298]	12
CC(C)N1C(=O)c2c(O)c(=O)ccn2N(C2c3ccccc3CCc3ccccc32)C1CCN (stereo not drawn) [Example 533]	391
